{"source": "patent US9433663B2", "about": "“Mobilization of hematopoietic stem cells” (Children's Hospital Medical Center, priority 2008, dated 2016)", "key": {"[1]": {"tested_on": "human CD34^+ umbilical cord blood cells", "assay": "migration of human CD34+ HCB cells", "assay_type": "cell-based", "conditions": "5 μM", "protocol": "FIG. 4C. relative migration of human CD34^+ cord blood cells in the presence of CASIN at dose of 5 μM in comparison to that of control.\n(§1) To begin to study potential utility of CASIN in human hematopoietic stem cell mobilization, a series of cellular assays were carried out to determine the effects on human CD34^+ umbilical cord blood cells (HCBs). […] The effects of CASIN on human hematopoietic cell mobilization was therefore tested using a well established preclinical in vivo model (NOD/SCID-Hcb) of human hematopoietic function, where fresh CD34^+ hCB cells were transplanted into sub-lethally irradiated NOD/SCIDs by intrafemoral injection, and repopulated and maintained human hematopoietic reconstitution in the bone marrow of NOD/SCID recipient mice (FIG. 9b, FIG. 11) (Larochelle, A. et al. Nat Med 2, 1329-1337 (1996); Bhatia, M., et al. Proc Natl Acad Sci USA 94, 5320-5325 (1997)). Intravenous injections of CASIN were applied when human cells were well engrafted in the NOD/SCID recipients."}, "[2]": {"tested_on": "other Rho GTPases and Ras", "assay": "Example 7 effector pull-down in LDBM and HCB cells, other Rho GTPases and Ras", "assay_type": "cell-based, murine LDBM and human HCB cells", "protocol": "To exclude the inhibitory effect of CASIN on other Rac isoforms, Rho GTPases, and Ras, broader effector pull-down experiments are performed on these possible candidates with gradient doses of CASIN in LDBM and HCB cells as previously described. In addition, CASIN has been indicated as a noncovalent and reversible inhibitor in Xenopus egg extract. To confirm it, reversibility is monitored in this set of effector pull-down experiments. Four treatment groups are divided for both LDBM and HCB cells: (1) Serum starvation 20 h; (2) Serum starvation 20 h+growth factors stimulation; (3) Serum starvation 20 h+CASIN treatment (doses: 1, 2.5, 5, and 10 μM) 3 h+growth factor stimulation; (4) Serum starvation 20 h+CASIN treatment (doses: 1, 2.5, 5, and 10 μM) 3 h+wash the cells, and culture for another 3 h for recovery+growth factors stimulation. […] Bound proteins are analyzed by immunoblotting with respective antibodies (BD Biosciences). Furthermore, changes of downstream targets of Cdc42, Rac, and Rho under the four treatment groups are assessed. Phosphorylation status of PAK1, WASP (effectors of Cdc42), WAVE (effector of Rac), and ROCK (effector of Rho) are monitored by western blots using respective antibodies."}, "[3]": {"target": "T1, Rac1 (Homo sapiens, UniProt P63000)", "T1 construct": "endogenous in cells; host or cells: human CD34+ umbilical cord blood cells (HCB)", "assay": "Rho GTPase effector pulldown in human CD34+ umbilical cord blood cells, Rac1", "assay_type": "cell-based", "conditions": "human CD34^+ HCBs", "protocol": "as §1\nTo analyze the effects of CASIN on the formation of active GTP-bound Cdc42, RhoA, and Rac1, effector pulldown assays were carried out as described previously. Cdc42GAP^−/− MEF, LDBM, CD34^+ hCB cells were treated with CASIN at doses of 5-20 μM in parallel with vehicle control for 2 hrs after overnight starvation, and stimulated with cytokines subsequently. […]"}, "[4]": {"tested_on": "LT-HSCs", "assay": "Example 9 double-labeling of LT-HSC localization in the niche", "assay_type": "in vivo, mice", "conditions": "48 hours or earlier after mobilization", "protocol": "These studies use a double-labeling technique to monitor the localization change of LT-HSCs upon mobilization by CASIN.\nAMD3100 and G-CSF induced mobilization are used as positive controls, while the control medium is used as a negative control. DBA/2, PeP3b, and C57Bl/6 mice are used in parallel to test the effects of variable mobilization capacity on the movement of LT-HSCs.\nBasically, mice are fed BrdU (0.8 mg/ml) in drinking water for 10 days, followed by a chase period of seventy days, after which only the slow cycling LT-HSCs are found to retain the BrdU-label. At the end of the chase period of BrdU labeling, CASIN, AMD3100, G-CSF, or control is administrated on the mice and 3H-TdR is pulse-labeled 1 h before sacrificing the mice. Mice are sacrificed at different time points post administration of mobilizers or control in order to reflect the kinetic changes of HSC localization upon mobilization. And then bone sections are immunochemically stained with anti-BrdU antibody and alkaline phosphatase-labeled secondary IgG, followed by visualization with red substrate. In the meantime, autoradiography is performed to visualize cell incorporated with 3H-TdR. A cell is considered to be double-labeled if it contains greater than 5 silver grains per nucleus over a bright nuclear pattern of red staining."}}, "data": [{"smiles": "OCCNC1CCCc2c1[nH]c1ccc(-c3ccccc3)cc21", "note": "(stereo not shown) [CASIN]", "values": [{"measurement": "migration activity of human progenitors", "setting": "[1]", "result": "significantly dampened"}, {"measurement": "activities of other Rho GTPases and Ras", "setting": "[2]", "result": "without affecting"}, {"measurement": "Rac1 activity", "setting": "[3]", "result": "without affecting"}, {"measurement": "number of BrdU-labeled LT-HSC in bone marrow niche", "setting": "[4]", "result": "reduced"}]}]}
